Source: patent publication US20230406883A1, “COMPOUNDS AND THEIR USE IN TREATMENT OF TACHYKININ RECEPTOR MEDIATED DISORDERS” (Embark Biotech ApS, priority 2020, published 2023)
Numbered stars: 1 amine (or outer) side, 2 acyl side, 3 side chain; on linkers, the order of the positions; unused ones are H or OH. Square brackets hold non-standard residues; d marks the D form. Peptide text beside a SMILES is read from it. * marks the point of attachment. C18 diacid = O=C(O)CCCCCCCCCCCCCCCCC(=O)*; γGlu = O=C(O)[C@H](CCC(=O)[*:2])N[*:1]; Cha = N[C@@H](CC1CCCCC1)C(=O)O; NMeL = CN[C@@H](CC(C)C)C(=O)O; Nle = CCCC[C@H](N)C(=O)O; AEEA = NCCOCCOCC(=O)O; βAla = NCCC(=O)O

How the values were obtained:
Test in all cases: IP3 assay (inositol trisphosphate, 3H-myoinositol) in transiently transfected COS-7 cells
Assay type in all cases: cell-based
[1] = biological target: T1, hNK1R (Homo sapiens, UniProt P25103); details: COS-7 cells; for EC50: 0.2% ovalbumin buffer; for hNK1R, IP3 Efficacy: figure legends: percent of 10^-6 M NKA
T1 construct: host or cells: COS-7
Protocol: (§1) Agonist-induced G-protein coupled receptor (GPCR) activation was measured by an Inositol-1,4,5-Trisphosphate [^3H] Radioreceptor Assay (IPs Assay). Assays were carried out using COS-7 cells transiently transfected by calcium phosphate transfection with a vector pcDNA3.1(+) encoding one of the indicated receptors (Genscript). Briefly, DNA mixed with CaCl2 (2 M) and TE-buffer (10 mM Tris-HCl, 1 mM EDTA, pH 7.5) was dropwise added to 2×HBS (50 mM HEPES, 280 mM NaCl, 1.5 mM NaH2PO4, pH 7.2) and incubated for 45 min at room temperature (22±2° C.). The mixture and a final concentration of 100 μM Chloroquine were added to the cells and left to incubate for 5 hours at 37° C. under standard cell culture conditions (10% CO2) before changing medium to fresh medium containing 5 μl/mL Myo-[2-^3H(N)]-inositol (labelling medium).
(§2) The IP3 assay takes advantage of the tachykinin receptors' ability to induce production of the inositol trisphosphate (IP3) second messenger upon agonist (ligand) binding on receptor expressing cells following an initial ^3H-inositol labelling period. In effect this means that production of the second messenger IP3 as a measure of receptor activity can be assessed by counting ^3H-activity.
(§3) Assay solutions used: Wash buffer (HBSS), Assay buffer (HBSS+10 mM LiCl and 0,2% w/v ovalbumin), Lysis buffer (10 mM formic acid), and SPA YSI beads (12.5 mg/ml in H2O). The assay was performed the day after transfection. Briefly, labelling medium was aspirated, and plates were washed ×1 in wash buffer before adding 100 μl assay buffer, pre-incubated for 30 min followed by 120 min incubation with agonist, both at 37° C. After incubation, plates were immediately placed on ice and the incubation medium was aspirated and 40 μl of 10 mM formic acid per well was added. Plates were incubated for at least 30 min on ice. 60 μl (1 mg/well) SPA YSI beads/well was pipetted into a solid white 96 wells plate and 35 μl of the lysis solution was transferred to the plate before covering plates with seal cover and shaking for 10 min. (max speed). Centrifuge plates and leave for 8 hours at room temperature before counting the plates in a MicroBeta plate counter (Perkin Elmer).

[2] = biological target: T2, hNK2R (Homo sapiens, UniProt P21452); details: for EC50 / hNK2R, IP3 Efficacy: COS-7 cells; for EC50: 0.2% ovalbumin buffer; for hNK2R, IP3 Efficacy: figure legends: percent of 10^-6 M NKA
T2 construct: host or cells: COS-7
T2 sequence (P21452 1-398): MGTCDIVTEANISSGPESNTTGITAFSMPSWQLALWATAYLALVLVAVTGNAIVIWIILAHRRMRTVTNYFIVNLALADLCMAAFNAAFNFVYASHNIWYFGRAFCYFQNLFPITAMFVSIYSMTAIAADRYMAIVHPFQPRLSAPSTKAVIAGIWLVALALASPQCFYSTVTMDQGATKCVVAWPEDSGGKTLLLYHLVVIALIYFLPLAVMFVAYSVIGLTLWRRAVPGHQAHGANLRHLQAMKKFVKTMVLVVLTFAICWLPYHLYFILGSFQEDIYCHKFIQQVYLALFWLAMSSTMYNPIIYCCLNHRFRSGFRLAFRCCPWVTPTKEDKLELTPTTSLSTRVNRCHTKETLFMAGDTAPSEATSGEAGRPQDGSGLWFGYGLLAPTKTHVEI
Protocol: as §1, §2, §3

[3] = biological target: T3, hNK3R (Homo sapiens, UniProt P29371); details: COS-7 cells; for EC50: 0.2% ovalbumin buffer, read-out: hNK3, IP3 EC50; for hNK3, IP3 Efficacy: figure legends: percent of 10^-6 M NKA
T3 construct: host or cells: COS-7
T3 sequence (P29371 1-465): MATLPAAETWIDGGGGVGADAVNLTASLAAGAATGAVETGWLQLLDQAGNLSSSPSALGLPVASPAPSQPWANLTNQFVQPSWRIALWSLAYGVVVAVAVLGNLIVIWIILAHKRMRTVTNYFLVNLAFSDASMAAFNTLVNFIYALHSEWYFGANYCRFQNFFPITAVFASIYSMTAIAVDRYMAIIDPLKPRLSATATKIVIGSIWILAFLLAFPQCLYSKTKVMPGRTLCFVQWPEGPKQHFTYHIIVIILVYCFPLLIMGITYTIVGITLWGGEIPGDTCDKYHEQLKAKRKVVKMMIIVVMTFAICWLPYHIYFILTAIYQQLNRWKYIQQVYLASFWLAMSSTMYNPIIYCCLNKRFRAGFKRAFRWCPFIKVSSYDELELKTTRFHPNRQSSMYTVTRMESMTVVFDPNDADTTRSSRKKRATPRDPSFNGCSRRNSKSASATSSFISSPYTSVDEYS
Protocol: as §1, §2, §3

T1 sequence (P25103 whole entry): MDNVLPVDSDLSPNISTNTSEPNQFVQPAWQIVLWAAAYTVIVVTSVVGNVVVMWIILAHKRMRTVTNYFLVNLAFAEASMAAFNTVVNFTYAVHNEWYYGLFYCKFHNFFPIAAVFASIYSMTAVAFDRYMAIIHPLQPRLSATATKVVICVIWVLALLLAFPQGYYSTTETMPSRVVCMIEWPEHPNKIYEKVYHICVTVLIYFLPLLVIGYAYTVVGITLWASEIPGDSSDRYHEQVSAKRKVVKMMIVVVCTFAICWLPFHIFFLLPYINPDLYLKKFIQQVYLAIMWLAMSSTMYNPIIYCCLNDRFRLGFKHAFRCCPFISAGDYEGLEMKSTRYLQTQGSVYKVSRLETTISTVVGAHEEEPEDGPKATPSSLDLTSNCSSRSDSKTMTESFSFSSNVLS

Compound	EC50 [1]	hNK1R, IP3 Efficacy [1]	EC50 [2]	hNK2R, IP3 Efficacy [2]	EC50 [3]	hNK3, IP3 Efficacy [3]	hNK2R receptor activation, in words [2]
CSCC[C@H](NC(=O)[C@H](CC(C)C)N(C)C(=O)CNC(=O)[C@@H](NC(=O)[C@H](Cc1ccccc1)NC(=O)[C@H](CCCCNC(=O)COCCOCCNC(=O)COCCOCCNC(=O)CC[C@H](NC(=O)CCCCCCCCCCCCCCCCC(=O)O)C(=O)O)NC(=O)[C@H](CC(=O)O)NC(C)=O)C(C)C)C(N)=O [compound 301, **Asp;Lys*;Phe;Val;Gly;NmLeu;Met;NH2]	~1.5 µM	64%	0.038 µM	63%	0.16 µM	85%	–
CSCC[C@H](NC(=O)[C@H](CC(C)C)N(C)C(=O)CNC(=O)[C@@H](NC(=O)[C@H](Cc1ccccc1)NC(=O)[C@H](CCCCNC(=O)COCCOCCNC(=O)COCCOCCNC(=O)CC[C@H](NC(=O)CCCCCCCCCCCCCCCCC(=O)O)C(=O)O)NC(=O)[C@H](CC(=O)O)NC(=O)COCCOCCNC(=O)COCCOCCNC(=O)CC[C@H](NC(=O)CCCCCCCCCCCCCCCCC(=O)O)C(=O)O)C(C)C)C(N)=O [compound 302, *Asp;Lys*;Phe;Val;Gly;NmLeu;Met;NH2]	–	–	–	–	–	–	inactivates the NKA(4-10) analogue
CCCC[C@H](NC(=O)[C@H](CC(C)C)N(C)C(=O)CNC(=O)[C@@H](NC(=O)[C@H](Cc1ccccc1)NC(=O)[C@H](CCCNC(=N)N)NC(=O)[C@H](CC(=O)O)NC(=O)COCCOCCNC(=O)COCCOCCNC(=O)CC[C@H](NC(=O)CCCCCCCCCCCCCCCCC(=O)O)C(=O)O)C(C)C)C(N)=O [compound 306, *Asp;Arg;Phe;Val;Gly;NmLeu;Nle;NH2] ({C18 diacid-γGlu-AEEA-AEEA}-DRFVG[NMeL][Nle]-NH2)	0.019 µM	80%	0.002 µM	90%	0.036 µM	65%	–
CCCC[C@H](NC(=O)[C@H](CC(C)C)N(C)C(=O)CNC(=O)[C@@H](NC(=O)[C@H](Cc1ccccc1)NC(=O)[C@H](CCCCNC(=O)COCCOCCNC(=O)COCCOCCNC(=O)CC[C@H](NC(=O)CCCCCCCCCCCCCCCCC(=O)O)C(=O)O)NC(=O)[C@@H](N)CC(=O)O)C(C)C)C(N)=O [compound 307, Asp;Lys*;Phe;Val;Gly;NmLeu;Nle;NH2]	–	64%	0.024 µM	80%	~12 µM	85%	–
CC(C)C[C@@H](C(=O)N[C@@H](CC1CCCCC1)C(N)=O)N(C)C(=O)CNC(=O)[C@@H](NC(=O)[C@H](Cc1ccc(O)cc1)NC(=O)[C@H](CCCCN)NC(=O)[C@H](CC(=O)O)NC(=O)COCCOCCNC(=O)COCCOCCNC(=O)CC[C@H](NC(=O)CCCCCCCCCCCCCCCCC(=O)O)C(=O)O)C(C)C [compound 313, *Asp;Lys;Tyr;Val;Gly;NmLeu;cHexAla;NH2] ({C18 diacid-γGlu-AEEA-AEEA}-DKYVG[NMeL][Cha]-NH2)	–	20%	0.023 µM	70%	–	0%	–
CCCC[C@H](NC(=O)[C@H](CC(C)C)N(C)C(=O)CNC(=O)[C@H](CCCNC(=N)N)NC(=O)[C@H](Cc1ccc(O)cc1)NC(=O)[C@H](CCCCN)NC(=O)[C@H](CCC(=O)O)NC(=O)COCCOCCNC(=O)COCCOCCNC(=O)CC[C@H](NC(=O)CCCCCCCCCCCCCCCCC(=O)O)C(=O)O)C(N)=O [compound 314, *Glu;Lys;Tyr;Arg;Gly;NmLeu;Nle;NH2] ({C18 diacid-γGlu-AEEA-AEEA}-EKYRG[NMeL][Nle]-NH2)	–	0%	~3.1 µM	45%	–	0%	–
CCCC[C@H](NC(=O)[C@H](CC(C)C)N(C)C(=O)CNC(=O)[C@H](CCCNC(=N)N)NC(=O)[C@H](Cc1ccccc1)NC(=O)[C@H](CCCCN)NC(=O)[C@H](CCC(=O)O)NC(=O)COCCOCCNC(=O)COCCOCCNC(=O)CC[C@H](NC(=O)CCCCCCCCCCCCCCCCC(=O)O)C(=O)O)C(N)=O [compound 315, *Glu;Lys;Phe;Arg;Gly;NmLeu;Nle;NH2] ({C18 diacid-γGlu-AEEA-AEEA}-EKFRG[NMeL][Nle]-NH2)	–	0%	0.047 µM	60%	–	0%	–
CCCC[C@H](NC(=O)[C@H](CC(C)C)N(C)C(=O)CNC(=O)[C@@H](NC(=O)[C@H](Cc1ccc(I)cc1)NC(=O)[C@H](CCCCN)NC(=O)[C@H](CC(=O)O)NC(=O)COCCOCCNC(=O)COCCOCCNC(=O)CC[C@H](NC(=O)CCCCCCCCCCCCCCCCC(=O)O)C(=O)O)C(C)C)C(N)=O [compound 330, *Asp;Lys;4-I-Phe;Val;Gly;NmLeu;Nle;NH2]	~0.17 µM	40%	–	0%	–	0%	completely destroys NK2R activation

More lines, now with the values ahead:

EC50 [1]	hNK1R, IP3 Efficacy [1]	EC50 [2]	hNK2R, IP3 Efficacy [2]	EC50 [3]	hNK3, IP3 Efficacy [3]	hNK2R receptor activation, in words [2]	Compound
~0.164 µM	60%	0.096 µM	65%	1 µM	93%	–	CCCC[C@H](NC(=O)[C@H](CC(C)C)NC(=O)CNC(=O)[C@@H](NC(=O)[C@H](Cc1ccccc1)NC(=O)[C@H](CO)NC(=O)[C@H](CC(=O)O)NC(=O)[C@@H](NC(=O)[C@H](CCCCN)NC(=O)COCCOCCNC(=O)COCCOCCNC(=O)CC[C@H](NC(=O)CCCCCCCCCCCCCCCCC(=O)O)C(=O)O)[C@@H](C)O)C(C)C)C(N)=O [compound 308, *Lys;Thr;Asp;Ser;Phe;Val;Gly;Leu;Nle;NH2]
–	0%	0.045 µM	65%	–	80%	–	CCCC[C@H](NC(=O)[C@H](CC(C)C)N(C)C(=O)CCNC(=O)[C@@H](NC(=O)[C@H](Cc1ccccc1)NC(=O)[C@H](CO)NC(=O)[C@H](CC(=O)O)NC(=O)[C@@H](NC(=O)[C@H](CCCCN)NC(=O)COCCOCCNC(=O)COCCOCCNC(=O)CC[C@H](NC(=O)CCCCCCCCCCCCCCCCC(=O)O)C(=O)O)[C@@H](C)O)C(C)C)C(N)=O [compound 310, *Lys;Thr;Asp;Ser;Phe;Val;bAla;NmLeu;Nle;NH2] ({C18 diacid-γGlu-AEEA-AEEA}-KTDSFV[βAla][NMeL][Nle]-NH2)
~0.178 µM	44%	0.025 µM	65%	0.513 µM	80%	–	CCCC[C@H](NC(=O)[C@H](CC(C)C)N(C)C(=O)CNC(=O)[C@@H](NC(=O)[C@H](Cc1ccccc1)NC(=O)[C@H](CO)NC(=O)[C@H](CC(=O)O)NC(=O)[C@@H](NC(=O)[C@H](CCCCN)NC(=O)COCCOCCNC(=O)COCCOCCNC(=O)CC[C@H](NC(=O)CCCCCCCCCCCCCCCCC(=O)O)C(=O)O)[C@@H](C)O)C(C)C)C(N)=O [compound 312, *Lys;Thr;Asp;Ser;Phe;Val;Gly;NmLeu;Nle;NH2]
–	0%	~0.13 µM	53%	~0.16 µM	80%	–	CCCC[C@H](NC(=O)[C@H](CC(C)C)NC(=O)CCNC(=O)[C@@H](NC(=O)[C@H](Cc1ccccc1)NC(=O)[C@H](CO)NC(=O)[C@H](CC(=O)O)NC(=O)[C@@H](NC(=O)[C@H](CCCCN)NC(=O)COCCOCCNC(=O)COCCOCCNC(=O)CC[C@H](NC(=O)CCCCCCCCCCCCCCCCC(=O)O)C(=O)O)[C@@H](C)O)C(C)C)C(N)=O [compound 322, *Lys;Thr;Asp;Ser;Phe;Val;bAla;Leu;Nle;NH2] ({C18 diacid-γGlu-AEEA-AEEA}-KTDSFV[βAla]L[Nle]-NH2)
